Results reported in PMC10093686, “Structural insights into acetylated histone ligand recognition by the BDP1 bromodomain of Plasmodium falciparum” (International journal of biological macromolecules, 2022).
“Also recorded” adds a separate entry of the source.

The substances below were run against PfBDP1-BRD (P. falciparum Bromodomain Protein 1 bromodomain) (assay: ITC binding assay of PfBDP1-BRD with histone peptides). Conditions: 5°C, 20 mM sodium phosphate pH 7.5, 150 mM NaCl, 1 mM TCEP, protein (303–488 or 333–456) 100–200 μM in cell, peptide 2.5–5.0 mM in syringe, 1:1 binding model, mean ± SD of three runs, non-binding ligands in duplicate.
Design: species or system Plasmodium falciparum
Description: Isothermal titration calorimetry (ITC) experiments were carried out using a MicroCal PEAQ-ITC and a MicroCal iTC200 (Malvern Panalytical). The purified PfBDP1-BRD proteins (containing residues 303–488 or 333–456) were dialyzed for 48 h at 4°C into ITC buffer containing 20 mM sodium phosphate buffer pH 7.5, 150 mM NaCl, and 1 mM TCEP. The dialyzed PfBDP1-BRD (303–488 or 333–456) proteins were added to the sample cell at concentrations of 100–200 μM, and between 2.5 and 5.0 mM of each histone peptide in the ITC dialysis buffer was placed in the injection syringe. A total of 20 injections were carried out, with the parameters set as follows. […] The remaining 19 injections were completed with an injection volume of 2 μL, a reaction time of 4 s, and a 150 s spacing time between each injection. All ITC runs were carried out at 5°C with a differential power (DP) value of 10, the feedback set to high, at a stirring speed of 750 RPM, and with an initial delay for the reaction set to 60 s.
The ITC data obtained were analyzed using the MicroCal PEAQ-ITC 200 analysis software provided with the instrument (Malvern Panalytical). The heat of dilutions for the buffer and peptide ligands were obtained from titrating buffer into buffer, buffer into PfBDP1-BRD protein (303–488 and 333–456), and histone peptide into buffer. The heats of dilution for the histone peptides were subtracted from the raw isotherms obtained from the histone peptide and PfBDP1-BRD (303–488 and 333–456) protein titrations. The first injection was discarded from the data analysis, and the data was integrated using a 1:1 binding model assuming a single set of identical binding sites. A Marquandt nonlinear least-squares analysis was used to calculate the binding affinities and N values from the normalized heat changes. Binding experiments were repeated in triplicate for each ligand and the mean KD was calculated from the average of the three runs, with the standard deviation coming from the mean.
With “ARTKQTAR(Kac)STGGKAPRKQLATKA [H3K9ac, histone H3 peptide (1–24) mono-acetylated at lysine 9]” the “PfBDP1-BRD KD” value was “did not observe any interaction; also recorded: No Binding”. “MEVPGVIGG(Kac)VGGKVGGKVLGLG [H2A.ZK11ac, histone H2A.Z peptide mono-acetylated at K11]” was tested, and the “PfBDP1-BRD KD” value was “No Binding”. “MEVPGVIGGKVGG(Kac)VGGKVLGLG [H2A.ZK15ac, histone H2A.Z peptide mono-acetylated at K15]” was tested, and the “PfBDP1-BRD KD” value was “No Binding”. With “SGKGPAQKSQAAKKTAGKTLGPR [H2B.Z unmodified, unmodified P. falciparum histone variant H2B.Z peptide]” the “PfBDP1-BRD KD” value was “No Binding”. With “MEVPGVIGGKVGGKVGGKVLGLG [H2A.Z unmodified, unmodified P. falciparum histone variant H2A.Z peptide]” the “PfBDP1-BRD KD” value was “No Binding”. In the case of “MEVPGVIGGKVGGKVGG(Kac)VLGLG [H2A.ZK19ac, histone H2A.Z peptide mono-acetylated at K19]”, the “PfBDP1-BRD KD” value is reported as “No Binding”. “SGKGPAQKSQAAKKTAG(Kac)TLGPR [H2B.ZK18ac, histone H2B.Z peptide mono-acetylated at K18]” was tested, and the “PfBDP1-BRD KD” value was “No Binding”. With “SGRGKGG(Kac)GLGKGGAKRHRKVLRD [H4K8ac, histone H4 peptide (1–24) mono-acetylated at K8]” the “PfBDP1-BRD KD” value was “No Binding”. For “SG(Kac)GPAQKSQAAKKTAGKTLGPR [H2B.ZK3ac, histone H2B.Z peptide mono-acetylated at K3]”, the “PfBDP1-BRD KD” value was “No Binding”. “SGKGPAQKSQAAK(Kac)TAGKTLGPR [H2B.ZK14ac, histone H2B.Z peptide mono-acetylated at K14]” was tested, and the “PfBDP1-BRD KD” value was “No Binding”. “SGKGPAQ(Kac)SQAAKKTAGKTLGPR [H2B.ZK8ac, histone H2B.Z peptide mono-acetylated at K8]” was tested, and the “PfBDP1-BRD KD” value was “No Binding”. In the case of “SGKGPAQKSQAA(Kac)KTAGKTLGPR [H2B.ZK13ac, histone H2B.Z peptide mono-acetylated at K13]”, the “PfBDP1-BRD KD” value is reported as “No Binding”.

Each substance was assayed on PfBDP1-BRD (303–488) (assay: NMR chemical shift perturbation (2D 15N-1H HSQC) titration with histone peptides). Conditions: 0.3–0.5 mM 15N-labeled PfBDP1-BRD (303–488); 20 mM Tris-HCl pH 6.8, 150 mM NaCl, 10 mM DTT, 10% D2O; molar ratios 1:0, 1:0.5, 1:1, 1:2.5, 1:5; 25°C; result in words.
Format: binding, Plasmodium falciparum
Description: Chemical shift perturbation experiments were performed using 0.3–0.5 mM of uniformly ^15N-labeled PfBDP1-BRD (303–488) in NMR buffer containing 20 mM Tris-HCl pH 6.8, 150 mM NaCl, 10 mM DTT and 10% D2O. […] Two-dimensional ^15N−^1H HSQC (heteronuclear single quantum coherence) experiments for all samples were acquired on Bruker Avance III spectrometer equipped with a cryogenic 1.7 mm probe. The temperature of the samples was regulated at 25°C throughout data collection. All spectra were processed using TopSpin (Bruker) as described previously and analyzed using NMRFAM-SPARKY [48].
For “ARTKQTAR(Kac)STGGKAPRKQLATKA [H3K9ac, histone H3 peptide (1–24) mono-acetylated at lysine 9]”, the “Chemical shift perturbations (CSPs) of PfBDP1-BRD backbone amide peaks upon addition of peptide” value was “did not observe any CSPs”. “MEVPGVIGG(Kac)VGGKVGGKVLGLG [H2A.ZK11ac, histone H2A.Z peptide mono-acetylated at K11]” was tested, and the “Chemical shift perturbations (CSPs) of PfBDP1-BRD backbone amide peaks upon addition of peptide” value was “absence of CSPs”.
